Results from US20230000773A1, “NOVEL HEADGROUP LIPID COMPOUNDS AND COMPOSITIONS FOR INTRACELLULAR DELIVERY OF THERAPEUTIC AGENTS” (ModernaTX, Inc., priority 2019, published 2023).

Key:
[1] = Size and polydispersity index of nanoparticles comprising compounds of the disclosure; type: physicochemical; conditions: compound:DSPC:cholesterol:PEG 2 50:10:38:2 mol %
Source text: Lipid nanoparticles (e.g., empty LNPs or loaded LNPs) may be characterized by a variety of methods. For example, microscopy (e.g., transmission electron microscopy or scanning electron microscopy) may be used to examine the morphology and size distribution of a nanoparticle composition. Dynamic light scattering or potentiometry (e.g., potentiometric titrations) may be used to measure zeta potentials. Dynamic light scattering may also be utilized to determine particle sizes. Instruments such as the Zetasizer Nano ZS (Malvern Instruments Ltd, Malvern, Worcestershire, UK) may also be used to measure multiple characteristics of a nanoparticle composition, such as particle size, polydispersity index, and zeta potential.
(§1) Nanoparticle compositions including a therapeutic and/or prophylactic can be optimized according to the selection of a compound according to Formula (I), (I-1), (A), (A-1), (A-1a), or (A-1b), the selection of additional lipids, the amount of each lipid in the lipid component, and the wt:wt ratio of the lipid component to the therapeutic and/or prophylactic. Nanoparticle compositions including DSPC as a phospholipid, cholesterol as a structural lipid, PEG 2 as a PEG lipid, and a compound according to Formula (I), (I-1), (A), (A-1), (A-1a), or (A-1b) were prepared. The ratios of the lipids were 50:10:38:2 mol % for the lipid according to Formula (I), (I-1), (A), (A-1), (A-1a), or (A-1b):DSPC:cholesterol:PEG 2. […]

[2] = Encapsulation efficiency (% EE), ribogreen; type: physicochemical; conditions: nanoparticles, compound:DSPC:cholesterol:PEG 2 50:10:38:2 mol %
Source text: The efficiency of encapsulation of a therapeutic and/or prophylactic describes the amount of therapeutic and/or prophylactic that is encapsulated or otherwise associated with a lipid nanoparticle (e.g., an empty LNP or a loaded LNP) after preparation, relative to the initial amount provided. The encapsulation efficiency is desirably high (e.g., close to 100%). The encapsulation efficiency may be measured, for example, by comparing the amount of therapeutic and/or prophylactic in a solution containing the lipid nanoparticle (e.g., an empty LNP or a loaded LNP) before and after breaking up the lipid nanoparticle (e.g., an empty LNP or a loaded LNP) with one or more organic solvents or detergents. Fluorescence may be used to measure the amount of free therapeutic and/or prophylactic (e.g., RNA) in a solution.
as §1

[3] = Apparent LNP pKa by 2-(p-toluidino)-6-napthalene sulfonic acid (TNS) assay; type: physicochemical; conditions: pH at half of maximum fluorescence
[4] = Heparin-sepharose binding of nanoparticles
hEPO mRNA = assay: hEPO expression in CD1-mice after intravenous administration of nanoparticles; type: in vivo; conditions: 6 h after intravenous administration, mRNA dose 0.5 mg/kg, N:P 3.4, compound:DSPC:cholesterol:PEG 2 50:10:38:2
Procedure: The expression of hEPO mRNA in CD1-mice was measured 6 h after intravenous administration of nanoparticles comprising a compound of the disclosure, DSPC, cholesterol, and PEG 2 in a ratio of 50:10:38:2. […] Each composition was dosed to 8 animals at an mRNA dose of 0.5 mg/kg.

[5] = Surface hydrophobicity by Generalized Polarization by Laurdan (GPL); type: physicochemical; conditions: normalized Generalized Polarization by Laurdan; higher N-GP = less polar surface
Source text: Nanoparticle compositions including a therapeutic and/or prophylactic can be optimized according to the selection of a compound according to Formula (I), (I-1), (A), (A-1), (A-1a), or (A-1b), the selection of additional lipids, the amount of each lipid in the lipid component, and the wt:wt ratio of the lipid component to the therapeutic and/or prophylactic. Nanoparticle compositions including DSPC as a phospholipid, cholesterol as a structural lipid, PEG 2 as a PEG lipid, and a compound according to Formula (I), (I-1), (A), (A-1), (A-1a), or (A-1b) were prepared. The ratios of the lipids were 50:10:38:2 mol % for the lipid according to Formula (I), (I-1), (A), (A-1), (A-1a), or (A-1b):DSPC:cholesterol:PEG 2.
Laurdan, a fluorescent aminonaphthalene ketone lipid, was post-inserted into the nanoparticle surface and the fluorescence spectrum of Laurdan was collected to determine the normalized Generalized Polarization (N-GP). Higher N-GP indicates a less polar surface.

SMILES | PDI [1] | Size (nm) [1] [nm] | % EE (ribogreen) [2] [%] | LogIC50 (pKa) [3] | Relative % Area Bound by LNP [4] [%] | Avg. [hEPO] mIU/mL (hEPO mRNA) [mIU/mL] | Average N-GP [5]
CCCCCCCCC(CC)OC(=O)CCCCCCCN(CCCCCCCC(=O)OC(CCCCCCCC)CCCCCCCC)CCCNc1nc2[nH]cnc2c(=O)[nH]1 (stereo not shown) [Compound 29, Heptadecan-9-yl 8-((3-((6-oxo-6,9-dihydro-1H-purin-2-yl)amino)propyl)(8-oxo-8-(undecan-3-yloxy)octyl)amino)octanoate] | 0.199 | 63.5 | 98.9 | 6.68 | 6.45 | 8.93E+04 | –
CCCCCCCCC(CC)OC(=O)CCCCCCCN(CCCCCCCC(=O)OC(CCCCCCCC)CCCCCCCC)CCCNc1ncncc1NC (stereo not shown) [Compound 35, Heptadecan-9-yl 8-((3-((5-(methylamino)pyrimidin-4-yl)amino)propyl)(8-oxo-8-(undecan-3-yloxy)octyl)amino)octanoate] | 0.176 | 91.2 | 96 | 7.27 | 2.90 | 3.71E+05 | 0.888
CCCCCCCCC(CC)OC(=O)CCCCCCCN(CCCCCCCC(=O)OC(CCCCCCCC)CCCCCCCC)CCCNC1=CC(=O)NC1 (stereo not shown) [Compound 45, Heptadecan-9-yl 8-((3-((5-oxo-2,5-dihydro-1H-pyrrol-3-yl)amino)propyl)(8-oxo-8-(undecan-3-yloxy)octyl)amino)octanoate] | 0.141 | 81.8 | 98.5 | 6.85 | 31.46 | 1.15E+05 | 0.655
CCCCCCCCC(CC)OC(=O)CCCCCCCN(CCCCCCCC(=O)OC(CCCCCCCC)CCCCCCCC)CCCn1ccc2cc([N+](=O)[O-])ccc21 (stereo not shown) [Compound 48, Heptadecan-9-yl 8-((3-(5-nitro-1H-indol-1-yl)propyl)(8-oxo-8-(undecan-3-yloxy)octyl)amino)octanoate] | 0.196 | 54.3 | −11.2 | 6.41 | 0 | 0 | –
CCCCCCCCC(CC)OC(=O)CCCCCCCN(CCCCCCCC(=O)OC(CCCCCCCC)CCCCCCCC)CCCNc1noc(N)n1 (stereo not shown) [Compound 50, Heptadecan-9-yl 8-((3-((5-amino-1,2,4-oxadiazol-3-yl)amino)propyl)(8-oxo-8-(undecan-3-yloxy)octyl)amino)octanoate] | 0.18 | 69.8 | 98.1 | 6.09 | 0 | 1.91E+05 | –
CCCCCCCCC(CC)OC(=O)CCCCCCCN(CCCCCCCC(=O)OC(CCCCCCCC)CCCCCCCC)CCCNC1=NCC(=O)N1 (stereo not shown) [Compound 57, Heptadecan-9-yl 8-((3-((4-oxo-4,5-dihydro-1H-imidazol-2-yl)amino)propyl)(8-oxo-8-(undecan-3-yloxy)octyl)amino)octanoate] | 0.132 | 58.8 | 98.2 | 6.52 | 1.09 | 4.21E+04 | 0.582
CCCCCCCCC(CC)OC(=O)CCCCCCCN(CCCCCCCC(=O)OC(CCCCCCCC)CCCCCCCC)CCCNS(C)(=N)=O (stereo not shown) [Compound 58, Heptadecan-9-yl 8-((3-(methylsulfonoamidimidamido)propyl)(8-oxo-8-(undecan-3-yloxy)octyl)amino)octanoate] | 0.142 | 86.9 | 98.6 | 7.05 | 47.35 | 9.03E+04 | 0.493
CCCCCCCCC(CC)OC(=O)CCCCCCCN(CCCCCCCC(=O)OC(CCCCCCCC)CCCCCCCC)CCCNS(=O)(=O)NC (stereo not shown) [Compound 59, Heptadecan-9-yl 8-((3-((N-methylsulfamoyl)amino)propyl)(8-oxo-8-(undecan-3-yloxy)octyl)amino)octanoate] | 0.16 | 72.7 | 98.3 | 6.74 | 0 | 2.49E+05 | 0.762
CCCCCCCCC(CC)OC(=O)CCCCCCCN(CCCCCCCC(=O)OC(CCCCCCCC)CCCCCCCC)CCCNC(=S)C1(C)CC1 (stereo not shown) [Compound 61, Heptadecan-9-yl 8-((3-(1-methylcyclopropane-1-carbothioamido)propyl)(8-oxo-8-(undecan-3-yloxy)octyl)amino)octanoate] | 0.375 | 79.6 | 49.1 | 5.95 | 1.73 | 1.52E+03 | 0.900
CCCCCCCCC(CC)OC(=O)CCCCCCCN(CCCCCCCC(=O)OC(CCCCCCCC)CCCCCCCC)CCCNC(=O)c1ccc2c(c1)B(O)OC2 (stereo not shown) [Compound 62, Heptadecan-9-yl 8-((3-(1-hydroxy-1,3-dihydrobenzo[c][1,2]oxaborole-6-carboxamido)propyl)(8-oxo-8-(undecan-3-yloxy)octyl)amino)octanoate] | 0.233 | 124.3 | 28.3 | 6.80 | 3.99 | 1.60E+05 | 0.890
CCCCCCCCC(CC)OC(=O)CCCCCCCN(CCCCCCCC(=O)OC(CCCCCCCC)CCCCCCCC)CCCNS(=O)(=O)CCOCc1ccccc1 (stereo not shown) [Compound 63, Heptadecan-9-yl 8-((3-((2-(benzyloxy)ethyl)sulfonamido)propyl)(8-oxo-8-(undecan-3-yloxy)octyl)amino)octanoate] | 0.273 | 126.4 | 37.7 | 6.41 | 6.25 | 1.90E+05 | 0.866
CCCCCCCCC(CC)OC(=O)CCCCCCCN(CCCCCCCC(=O)OC(CCCCCCCC)CCCCCCCC)CCCNS(C)(=O)=O (stereo not shown) [Compound 65, Heptadecan-9-yl 8-((3-(methylsulfonamido)propyl)(8-oxo-8-(undecan-3-yloxy)octyl)amino)octanoate] | 0.155 | 73.2 | 96.8 | 6.81 | 4.86 | 3.64E+05 | 0.713
CCCCCCCCC(CC)OC(=O)CCCCCCCN(CCCCCCCC(=O)OC(CCCCCCCC)CCCCCCCC)CCCNS(=O)(=O)c1ccn(C)n1 (stereo not shown) [Compound 68, Heptadecan-9-yl 8-((3-((1-methyl-1H-pyrazole)-3-sulfonamido)propyl)(8-oxo-8-(undecan-3-yloxy)octyl)amino)octanoate] | 0.109 | 63.2 | 96.6 | 6.71 | 1.12 | 4.29E+05 | 0.822
